Measured values from patent US9441012B2, “Fluorinated epoxyketone-based compounds and uses thereof as proteasome inhibitors” (FLUORINOV PHARMA INC., priority 2012, dated 2016).

Key:
Assay in all cases: NCI 60 human tumor cell line screen (SRB)
Format in all cases: cell-based
SK-OV-3 = SK-OV-3 (Ovarian Cancer); 48 h
From the text: (§1) Representative compounds of Formula I were screened using the National Cancer Institute (NCI) screening panel, which consists of a panel of 60 different human tumor cell lines, representing leukemia [CCRF-CEM, HL-60 (TB), K-562, MOLT-4, SR], melanoma [LOX IMVI, MALME-3M, M14, SMDA-MB-435, SK-MEL-2, SK-MEL-28, SK-MEL-5, UACC-257 and UACC-62] and cancers of the lung [A549/ATCC, EKVX, HOP-62, HOP-93, NCI-H226, NCI-H23, NCI-H322M, NCI-H460], colon [COLO 205, HCT-116, HCT-15, HT29, KM12, SW-620], brain [SF-268, SF-295, SF-539, SNB-19, SNB-75, U251], ovary [IGROV1, OVCAR-3, OVCAR-4, OVCAR-5, OVCAR-8, NCI/ADR-RES, SK-OV-3], breast [MCF7, MDA-MB-231, BT-549, T-47D, MDA-MB-468], prostate [PC-3, DU-145], and renal[786-0, A498, ACHN, CAKI-1, RXF-393, SN12C, TK-10, UO-31] cancers.
(§2) After 24 h, two plates of each cell line are fixed in situ with TCA, to represent a measurement of the cell population for each cell line at the time of drug addition (Tz). Experimental drugs are solubilised in dimethyl sulfoxide at 400-fold the desired final maximum test concentration and stored frozen prior to use. At the time of drug addition, an aliquot of frozen concentrate is thawed and diluted to twice the desired final maximum test concentration with complete medium containing 50 μg/ml gentamicin. Additional four, 10-fold or ½ log serial dilutions are made to provide a total of five drug concentrations plus control. Aliquots of 100 μl of these different drug dilutions are added to the appropriate microtiter wells already containing 100 μl of medium, resulting in the required final drug concentrations.
(§3) Following drug addition, the plates are incubated for an additional 48 h at 37° C., 5% CO2, 95% air, and 100% relative humidity. For adherent cells, the assay is terminated by the addition of cold TCA (trichloroacetic acid). Cells are fixed in situ by the gentle addition of 50 μl of cold 50% (w/v) TCA (final concentration, 10% TCA) and incubated for 60 minutes at 4° C. The supernatant is discarded, and the plates are washed five times with tap water and air dried. Sulforhodamine B (SRB) solution (100 μl) at 0.4% (w/v) in 1% acetic acid is added to each well, and plates are incubated for 10 minutes at room temperature. After staining, unbound dye is removed by washing five times with 1% acetic acid and the plates are air dried. Bound stain is subsequently solubilised with 10 mM trizma base, and the absorbance is read on an automated plate reader at a wavelength of 515 nm. For suspension cells, the methodology is the same except that the assay is terminated by fixing settled cells at the bottom of the wells by gently adding 50 μl of 80% TCA (final concentration, 16% TCA). Using the seven absorbance measurements [time zero, (Tz), control growth, (C), and test growth in the presence of drug at the five concentration levels (Ti)], the percentage growth is calculated at each of the drug concentration levels. Percentage growth inhibition is calculated as: [(Ti−Tz)/(C−Tz)]×100 for concentrations in which Ti>/=Tz and [(Ti−Tz)/Tz]×100 for concentrations in which Ti<Tz.
(§4) Three dose response parameters are calculated for each experimental agent. Growth inhibition of 50% (GI50) is calculated from [(Ti−Tz)/(C−Tz)]100=50, which is the drug concentration resulting in a 50% reduction in the net protein increase (as measured by SRB staining) in control cells during the drug incubation. The drug concentration resulting in total growth inhibition (TGI) is calculated from Ti=Tz. The LC50 (concentration of drug resulting in a 50% reduction in the measured protein at the end of the drug treatment as compared to that at the beginning) indicating a net loss of cells following treatment is calculated from [(Ti−Tz)/Tz]×100=−50. Values are calculated for each of these three parameters if the level of activity is reached. However, if the effect is not reached or is exceeded, the value for that parameter is expressed as greater or less than the maximum or minimum concentration tested.

A498 = A498 (Renal Cancer); 48 h
From the text: as §1, §2, §3, §4

OVCAR-4 = OVCAR-4 (Ovarian Cancer); 48 h
From the text: as §1, §2, §3, §4

DU-145 = DU-145 (Prostate Cancer); 48 h
From the text: as §1, §2, §3, §4

SF-268 = SF-268 (CNS Cancer); 48 h
From the text: as §1, §2, §3, §4

SK-MEL-5 = SK-MEL-5 (Melanoma); 48 h
From the text: as §1, §2, §3, §4

U251 = U251 (CNS Cancer); 48 h
From the text: as §1, §2, §3, §4

MDA-MB-468 = MDA-MB-468 (Breast Cancer); 48 h
From the text: as §1, §2, §3, §4

M14 = M14 (Melanoma); 48 h
From the text: as §1, §2, §3, §4

MDA-MB-231/ATCC = MDA-MB-231/ATCC (Breast Cancer); 48 h
From the text: as §1, §2, §3, §4

K-562 = K-562 (Leukemia); 48 h
From the text: as §1, §2, §3, §4

COLO 205 = COLO 205 (Colon Cancer); 48 h
From the text: as §1, §2, §3, §4

Row | SMILES | Log10GI50 (SK-OV-3) | Log10TGI50 (SK-OV-3) | Log10GI50 (A498) | Log10LC50 (A498) | Log10TGI50 (A498) | Log10GI50 (OVCAR-4) | Log10LC50 (OVCAR-4) | Log10TGI50 (OVCAR-4) | Log10GI50 (DU-145) | Log10LC50 (DU-145) | Log10TGI50 (DU-145) | Log10GI50 (SF-268) | Log10LC50 (SF-268) | Log10TGI50 (SF-268) | Log10GI50 (SK-MEL-5) | Log10LC50 (SK-MEL-5) | Log10TGI50 (SK-MEL-5) | Log10GI50 (U251) | Log10LC50 (U251) | Log10TGI50 (U251) | further results
1 | Cc1ncc(C(=O)N[C@@H](COC(F)F)C(=O)N[C@@H](COC(F)F)C(=O)N[C@@H](Cc2ccccc2)C(=O)[C@@]2(C)CO2)s1 [Example 1, 2-methyl-thiazole-5-carboxylic acid ((S)-1-{(S)-1-[(S)-1-benzyl-2-((R)-2-methyloxiranyl)-2-oxo-ethylcarbamoyl]-2-difluoromethoxyethylcarbamoyl}-2-difluoromethoxyethyl)-amide] | −6.06 | >−4.00 | −8.00 | −4.88 | −6.38 | −6.29 | >−4.00 | >−4.00 | −6.58 | −5.02 | −5.64 | −6.98 | >−4.00 | −5.90 | −7.15 | −5.47 | −6.34 | −6.55 | >−4.00 | −4.94 | Log10LC50 (SK-OV-3): >−4.00; Log10GI50 (MDA-MB-468): −6.75; Log10TGI50 (MDA-MB-468): −6.32; Log10GI50 (M14): −6.86; Log10LC50 (M14): −4.35; Log10TGI50 (M14): −6.24; Log10GI50 (MDA-MB-231/ATCC): −6.66; Log10LC50 (MDA-MB-231/ATCC): −4.73; Log10TGI50 (MDA-MB-231/ATCC): −6.01; Log10GI50 (K-562): −6.50; Log10LC50 (K-562): >−4.00; Log10TGI50 (K-562): >−4.00; Log10GI50 (COLO 205): −6.22; Log10LC50 (COLO 205): >−4.00; Log10TGI50 (COLO 205): −4.85
2 | C[C@]1(C(=O)[C@H](Cc2ccccc2)NC(=O)[C@H](COC(F)F)NC(=O)[C@H](COC(F)F)NC(=O)CN2CCOCC2)CO1 [Example 26, (S)-N-{(S)-1-[(S)-1-Benzyl-2-((R)-2-methyl-oxiranyl)-2-oxo-ethylcarbamoyl]-2-difluoromethoxyethyl}-3-difluoromethoxy-2-(2-morpholin-4-yl-acetylamino)-propio-namide] | −7.30 | −6.60 | −7.61 | −6.34 | −7.03 | −7.50 | >−4.00 | −6.75 | −7.27 | >−4.00 | −5.32 | −7.60 | >−4.00 | −7.14 | −7.60 | −6.49 | −7.17 | −7.44 | >−4.00 | −6.75 | Log10GI50 (MDA-MB-468): −7.54; Log10LC50 (MDA-MB-468): >−4.00; Log10TGI50 (MDA-MB-468): −6.96; Log10GI50 (M14): −7.48; Log10LC50 (M14): >−4.00; Log10TGI50 (M14): −6.71; Log10GI50 (MDA-MB-231/ATCC): −7.52; Log10LC50 (MDA-MB-231/ATCC): −4.21; Log10TGI50 (MDA-MB-231/ATCC): −6.80; Log10GI50 (K-562): −7.41; Log10LC50 (K-562): >−4.00; Log10TGI50 (K-562): >−4.00; Log10GI50 (COLO 205): −7.39; Log10LC50 (COLO 205): −6.21; Log10TGI50 (COLO 205): −6.76
